Data from US8158810B2 (Gilead Sciences, Inc., priority 2006, dated 2012).

Key:
[1] = test system: Male Sprague-Dawley rats; assay: Cocaine self administration and reinstatement model (cocaine induced relapse); format: in vivo, rat; conditions: for Lever presses (Avg ± Std. error): significantly different from Vehicle, p < 0.05
Procedure: Intravenous cocaine (0.35 mg/kg/inj) was used in an operant self administration and reinstatement model in rats. In this model, rats addicted to cocaine repeatedly pressed a lever to obtain an intravenous dose (iv) of cocaine. When cocaine was removed, rats stopped pressing the lever. However, rats resumed lever pressing for cocaine (reinstatement) if subjected to a small intraperitoneal (ip) dose (10 mg/kg) of cocaine that normally has no effect in naïve animals. This is a valid animal model of relapse in cocaine addicted humans, and tests the ability of compounds of Formula I to block cocaine craving and relapse.
Male Sprague-Dawley rats with jugular vein catheterization were used. Rats were presented with a choice of two levers in the test/training chamber. […] The following day the reinforcer was switched to FR1 lever pressing for cocaine (0.35 mg/kg/inj, delivered in 0.27 sec). […] Daily training sessions for each group lasted 2 hours, or until a subject earned 200 drug infusions, whichever came first. The subjects remained in drug self-administration training mode until acquisition criterion was met (average presses on the active lever varied by <10% over 3 consecutive training days). This typically takes 10-14 days.
For extinction and reinstatement experiments, rats were required to display stable responding (variability not higher than 15% in 2 consecutive sessions) on the FR1 schedule of reinforcement. […] When average responding across three consecutive extinction sessions fell to 15% of responding during maintenance, subjects were tested for reinstatement. In cocaine-experienced animals, reinstatement was primed with a non-contingent injection of cocaine (10 mg/kg ip) immediately before the reinstatement session. In order to increase statistical power and therefore decrease animal usage, a second extinction period was initiated 3-4 days after the first, which allowed for additional within-subjects comparisons. Experiments used a between-session-training and testing method in which animals were trained to self administer drug. Their behavior was then extinguished and then reinstatement was primed on different days.
Animals were trained to self administer cocaine (0.35 mg/kg/inj) until they reached stable responding. They were then trained in the same chambers but cocaine was no longer available.

[2] = test system: Wistar-derived male rats; assay: Nicotine self-administration; format: in vivo, rat; conditions: increasing doses (7.5, 10, 15 mg/kg i.p.) 30 minutes prior to session
Procedure: Wistar-derived male rats (250-300 g) were housed in groups of two and maintained in a temperature-controlled environment on a 12 hour: 12 hour light cycle (0600 h on-1800 h off), upon arrival in the laboratory. Animals were given free access to food and water during a one-week habituation period to the laboratory. […] Animals were handled daily for several days to desensitize them to handling stress before experimental testing. The sample sizes (n=8) provided reliable estimates of drug effects.
Mecamylamine was dissolved in 0.09% isotonic saline and administered at a volume of 1 ml/kg.
Food training and nicotine self-administration took place in 8 standard Coulbourn operant chambers. Each chamber was housed in a sound-attenuated box. Operant chambers were equipped with two levers, mounted 2 cm above the floor, and a cue light mounted 2 cm above the right lever on the back wall of the chamber. For food training, a food hopper was located 2-cm to the left/right of either lever, in the middle of the back wall. Intravenous infusions were delivered in a volume of 0.1 ml over a 1 second interval via an infusion pump (Razel, Conn.) housed outside of the sound attenuated chamber.
Initially, rats were restricted to 15 grams of food daily (approximately 85% of their free-feeding body weight). […]

[3] = target: T1, hMAO-B (Homo sapiens, UniProt P27338); assay: MAO-B inhibition assay; format: biochemical; conditions: at 10 μM; No = no inhibition; printed in the IC50 hMAO-B column
T1 construct: purchased Sigma M7441
T1 sequence (P27338 1-520): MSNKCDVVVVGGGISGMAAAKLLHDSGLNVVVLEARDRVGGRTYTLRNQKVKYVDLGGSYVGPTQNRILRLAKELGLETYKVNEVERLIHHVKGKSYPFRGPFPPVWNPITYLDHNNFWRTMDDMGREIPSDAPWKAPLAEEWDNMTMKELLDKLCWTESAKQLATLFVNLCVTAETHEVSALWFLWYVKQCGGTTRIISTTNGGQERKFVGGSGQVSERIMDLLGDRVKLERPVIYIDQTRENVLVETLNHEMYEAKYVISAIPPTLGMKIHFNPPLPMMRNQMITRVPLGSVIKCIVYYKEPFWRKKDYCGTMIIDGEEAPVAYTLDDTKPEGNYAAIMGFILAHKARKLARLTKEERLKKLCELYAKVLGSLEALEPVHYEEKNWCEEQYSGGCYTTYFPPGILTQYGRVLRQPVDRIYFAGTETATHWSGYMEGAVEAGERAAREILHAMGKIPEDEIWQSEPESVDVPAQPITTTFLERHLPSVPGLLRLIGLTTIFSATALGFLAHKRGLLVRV
Procedure: MAO-A (Sigma M7316) and MAO-B (Sigma M7441) inhibition assays were conducted in 96-well micro-plates according to the method described by Zhou et al. [Analytical Biochemistry 253, 169-174, 1997]. […] Reactions were initiated by the addition of a pre-mixed solution of tyramine, horseradish peroxidase and Amplex Red, and were allowed to proceed at 37° C. for 30 min. Enzyme activities were determined by measuring absorbance at 570 nm (SpectralMax Plate reader), absorbance of oxidized Amplex Red generated by this horseradish peroxidase-coupled reaction. Nonspecifically formed products were determined in the presence of 2 and 10 µM clorgyline and deprenyl for MAO-A and MAO-B, respectively. IC50 values were determined by fitting concentration-inhibition data to sigmoidal dose-response curves with two-floating parameters: IC50 and Hill coefficient.

[4] = target: T2, hMAO-A (Homo sapiens, UniProt P21397); assay: MAO-A inhibition assay; format: biochemical; conditions: up to 10 μM; No = no inhibition; printed in the IC50 hMAO-A column
T2 construct: purchased Sigma M7316
T2 sequence (P21397 1-527): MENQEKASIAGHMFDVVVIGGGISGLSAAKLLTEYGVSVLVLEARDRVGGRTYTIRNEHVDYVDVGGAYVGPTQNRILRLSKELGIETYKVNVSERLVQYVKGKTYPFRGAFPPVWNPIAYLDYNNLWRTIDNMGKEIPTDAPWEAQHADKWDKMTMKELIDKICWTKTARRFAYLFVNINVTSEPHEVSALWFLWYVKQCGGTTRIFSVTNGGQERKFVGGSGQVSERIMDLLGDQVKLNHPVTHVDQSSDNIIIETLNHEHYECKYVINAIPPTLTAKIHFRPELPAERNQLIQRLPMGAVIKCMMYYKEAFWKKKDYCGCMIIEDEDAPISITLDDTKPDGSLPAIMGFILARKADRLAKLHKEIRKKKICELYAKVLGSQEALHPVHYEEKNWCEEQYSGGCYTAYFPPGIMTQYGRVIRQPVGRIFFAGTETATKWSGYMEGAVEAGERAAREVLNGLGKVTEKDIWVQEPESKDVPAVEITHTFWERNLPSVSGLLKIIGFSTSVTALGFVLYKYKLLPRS
Method in brief: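 Human MAO-A (0.6 U/ml) or MAO-B (2.5 U/ml) in 0.1 M potassium phosphate pH 7.5 with 0.5 mM tyramine, 0.12 mM Amplex Red and HRP; compounds at 0.1 nM-10 μM, 30 min at 37 °C, absorbance at 570 nm. Background set with clorgyline (MAO-A) or deprenyl (MAO-B); IC50 from sigmoidal fits.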

[5] = target: T3, hALDH2 (recombinant human mitochondria ALDH) (Homo sapiens, UniProt P05091); assay: ALDH2 inhibition assay; format: biochemical
T3 sequence (P05091 18-517): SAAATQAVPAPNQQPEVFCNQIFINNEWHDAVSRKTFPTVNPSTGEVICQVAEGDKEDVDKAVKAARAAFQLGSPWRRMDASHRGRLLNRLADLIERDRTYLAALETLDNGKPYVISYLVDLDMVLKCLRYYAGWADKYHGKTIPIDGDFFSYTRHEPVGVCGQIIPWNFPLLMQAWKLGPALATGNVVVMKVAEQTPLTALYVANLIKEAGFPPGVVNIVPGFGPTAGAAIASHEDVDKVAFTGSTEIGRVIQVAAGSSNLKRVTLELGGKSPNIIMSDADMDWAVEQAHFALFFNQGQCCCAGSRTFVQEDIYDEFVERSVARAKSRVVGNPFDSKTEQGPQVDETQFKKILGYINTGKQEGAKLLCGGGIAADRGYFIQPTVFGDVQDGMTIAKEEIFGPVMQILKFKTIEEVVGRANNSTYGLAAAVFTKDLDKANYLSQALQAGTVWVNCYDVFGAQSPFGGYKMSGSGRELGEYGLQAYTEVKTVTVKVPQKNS
Procedure: ALDH2 inhibition assays were performed in sodium phosphate buffer (50 mM, pH 7.4) containing 1.2 mM NAD^+ (Sigma N7004), 1 nM hALDH2 (recombinant human mitochondria ALDH), various concentrations of test compounds (from 0.03 nM to […]), and 0.15 mM freshly prepared formaldehyde solution (Ladd Research 20295). Reactions were initiated by the addition of formaldehyde and rates were recorded by monitoring NADH formation in a temperature controlled (25° C.) FluoroMax-2 Fluorimeter with excitation and emission wavelengths set at 340 and 460 nm, respectively. […] Normally, IC50 values were determined by fitting concentration-inhibition data to sigmoidal dose-response curves with two-floating parameters: IC50 and Hill coefficient. When tight binding situation was suspected, apparent Ki values were estimated by fitting dose-response data to Morrison's equation [Methods in Enzymology 63, 437-467, 1979].

hMAO-B inhibition at 10 μM [3] | hMAO-A inhibition up to 10 μM [4] | IC50 [5] [nM] | Compound | Lever presses (Avg ± Std. error) ([1]; 7.5 mg/kg prior to cocaine priming dose (10 mg/kg), N = 9) | Lever presses (Avg ± Std. error) ([1]; 10 mg/kg prior to cocaine priming (10 mg/kg) dose, N = 6) | lever presses responding after priming injection of cocaine ([1]; 7.5 and 10 mg/kg prior to the priming injection of cocaine (10 mg/kg)) | relapse for cocaine ([1]; ip injections, rats) | number of bar presses (number of infusions) for nicotine administration [2]
 |  |  | CS(=O)(=O)Nc1ccc(-c2coc3cc(OCc4cccc(C(=O)O)c4)ccc3c2=O)cc1 [Cmpd A, 3-[(3-{4-[(methylsulfonyl)amino]phenyl}-4-oxochromen-7-yloxy)methyl]-benzoic acid] | 24.94 ± 7.92 | 19.83 ± 11.30 | did not show an increase in their lever presses responding | dose dependently blocked relapse for cocaine | reduced the number of bar presses
No | No | 5 | O=c1c(-c2ccc(O)cc2)coc2cc(OCCc3nnc(-c4ccc(F)cc4)o3)ccc12 [PT-112, 7-{[5-(4-fluorophenyl)(1,3,4-oxadiazol-2-yl)]echoxy}-3-(4-hydroxyphenyl)chromen-4-one] |  |  |  |  | 
21% | No | 63 | ethyl 3-[7-({3-[3-fluoro-5-(trifluoromethyl)phenyl](1,2,4-oxadiazol-5-yl)}ethoxy)-4-oxochromen-3-yl]benzoate [PT-76] |  |  |  |  | 
